Here are results for 19 molecules from PMC4823997 (Journal of medicinal chemistry, 2015).

For orientation: EC50 means the concentration that produces a half-maximal response. By CC50 is commonly meant the concentration giving 50% cytotoxicity.

Where two headings read alike, the source gives them in different places.

For one data set, the system named is HIV-1 IIIB. The data set is described as follows: Luciferase activity assay of HIV-1 infectivity in TZM-bl cells. The class given is cell-based. To be noted: read-out: Anti-HIV EC50.
A further data set concerns the target hCXCR4 (Homo sapiens, UniProt P61073). The data set is described as follows: Radioligand [125I]SDF-1α binding to hCXCR4-transfected HEK293 membrane. The settings on record: for fold increase in CXCR4 binding affinity compared to compound 4: relative to compound 4; for fold decrease in CXCR4 binding affinity compared to compound 18: relative to compound 18; for fold decrease in CXCR4 binding compared to compound 25: relative to compound 25.

Data set [1] is described as follows: Cytotoxicity assay. The class given is cell-based. To be noted: human, TZM-bl cells.
Data set [2] is described as follows: Cytotoxicity assay. The class given is cell-based, human. To be noted: human, CEM cells (T-lymphoblast leukemia).
The next data set relates to TZM-bl cells. The data set is described as follows: Cytotoxicity assay. The class given is cell-based. To be noted: for CC50: read-out: Cytotoxicity CC50 TZM-bl, TZM-bl cells, 72 h.
The next data set concerns CEM cells. The data set is described as follows: Cytotoxicity assay. To be noted: for CC50: read-out: Cytotoxicity CC50 CEM, CEM cells, 72 h. The class given is cell-based, human.
The mark [3] stands for this setting: TZM-bl cells, HIV-1 IIIB, M.O.I. 1.

Chain of hCXCR4 (P61073 whole entry): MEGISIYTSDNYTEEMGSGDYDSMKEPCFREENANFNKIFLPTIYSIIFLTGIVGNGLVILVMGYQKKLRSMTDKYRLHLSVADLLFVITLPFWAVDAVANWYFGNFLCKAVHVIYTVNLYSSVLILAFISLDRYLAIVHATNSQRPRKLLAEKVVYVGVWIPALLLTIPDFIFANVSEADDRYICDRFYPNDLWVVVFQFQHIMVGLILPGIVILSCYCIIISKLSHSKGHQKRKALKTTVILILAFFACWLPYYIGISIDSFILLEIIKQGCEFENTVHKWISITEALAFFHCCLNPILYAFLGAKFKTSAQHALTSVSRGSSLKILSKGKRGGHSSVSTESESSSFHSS

Take `c1cc(CN2CCCNCCNCCCNCC2)ccc1CN1CCCNCCNCCCNCC1` [AMD3100, reference compound]: the EC50 in the data set with HIV-1 IIIB (Human immunodeficiency virus 1, IIIB, TZM-bl) came to 0.0666 ± 0.0231 µM.
With `COc1ccc2nc(NCc3ccc(CNCCCNC4CCCCC4)cc3)nc(NC3CCNCC3)c2c1` [Compound 9, N^2-{4-[(3-Cyclohexylamino-propylamino)-methyl]-benzyl}-6-methoxy-N^4-piperidin-4-yl-quinazoline-2,4-diamine], at hCXCR4, the “fold increase in CXCR4 binding affinity compared to compound 4” value (“fold increase in CXCR4 binding affinity” below) is 4−5 fold. Besides, the CC50 at 72 h came to 8.4 ± 1 µM in the data set “Cytotoxicity assay [1]” and 8 ± 1.7 µM in “Cytotoxicity assay [2]”. Further, the figures for the selectivity ratio at 72 h in the data set “Cytotoxicity assay [1]” and in “Cytotoxicity assay [2]” were 177 and 169, respectively.
Taken in the same sequence, the figures for `COc1ccc2c(NC3CCNCC3)nc(NCc3ccc(CNCCCNC4CCCCC4)cc3)nc2c1` [Compound 10, N^2-{4-[(3-Cyclohexylamino-propylamino)-methyl]-benzyl}-7-methoxy-N^4-piperidin-4-yl-quinazoline-2,4-diamine] were 4−5 fold, 10.8 ± 3.3 µM, 1.6 ± 0.6 µM, 1260 and 186.
Consider `COc1cc2nc(NCc3ccc(CNCCCNC4CCCCC4)cc3)nc(NC3CCNCC3)c2cc1OC` [Compound 11, N^2-{4-[(3-Cyclohexylamino-propylamino)-methyl]-benzyl}-6,7-dimethoxy-N^4-piperidin-4-yl-quinazoline-2,4-diamine], for which, in “Cytotoxicity assay [1]”, the CC50 at 72 h is 23.1 ± 7 µM and the selectivity ratio at 72 h turned out to be 1060. Also, in the data set “Cytotoxicity assay [2]”, the CC50 at 72 h amounted to 17.5 ± 2.4 µM and the selectivity ratio at 72 h is 806.
As for `COc1ccc2nc(NCc3ccc(CNCCCNC4CCCCCC4)cc3)nc(NC3CCNCC3)c2c1` [Compound 12, N^2-{4-[(3-Cycloheptylamino-propylamino)-methyl]-benzyl}-6-methoxy-N^4-piperidin-4-yl-quinazoline-2,4-diamine], on hCXCR4, the “fold increase in CXCR4 binding affinity” value is given as 4−5 fold. For the same molecule, in the data set “Cytotoxicity assay [1]”, the CC50 at 72 h amounted to 21.7 ± 7 µM and the selectivity ratio at 72 h was 509. Besides, in “Cytotoxicity assay [2]”, the half-maximal cytotoxic concentration (CC50) at 72 h turned out to be 6.5 ± 1.1 µM and the selectivity ratio at 72 h was found to be 153.
With `COc1ccc2c(NC3CCNCC3)nc(NCc3ccc(CNCCCNC4CCCCCC4)cc3)nc2c1` [Compound 13, N^2-{4-[(3-Cycloheptylamino-propylamino)-methyl]-benzyl}-7-methoxy-N^4-piperidin-4-yl-quinazoline-2,4-diamine], the “fold increase in CXCR4 binding affinity” value at hCXCR4 was 4−5 fold. Further, the CC50 at 72 h was found to be 10.8 ± 0.8 µM in the data set “Cytotoxicity assay [1]” and 6.1 ± 1.1 µM in “Cytotoxicity assay [2]”. Besides, the selectivity ratio at 72 h is 238 in “Cytotoxicity assay [1]” and 134 in the data set “Cytotoxicity assay [2]”.
Consider `COc1cc2nc(NCc3ccc(CNCCCNC4CCCCCC4)cc3)nc(NC3CCNCC3)c2cc1OC` [Compound 14, N^2-{4-[(3-Cycloheptylamino-propylamino)-methyl]-benzyl}-6,7-methoxy-N^4-piperidin-4-yl-quinazoline-2,4-diamine], for which the EC50 with HIV-1 IIIB (setting [3]) turned out to be 0.0484 ± 0.0034 µM. In the data set on TZM-bl cells, the “Selective Index CC50/EC50 TZM-bl” value came out at 399 and the CC50 is 19.3 ± 0.88 µM. Moreover, in the data set with CEM cells, the “Selective Index CC50/EC50 CEM” value stood at 376 and the CC50 worked out at 18.2 ± 4.5 µM.
Turning to `COc1ccc2nc(NCc3ccc(CNCCCN4CCCCC4)cc3)nc(NC3CCNCC3)c2c1` [Compound 15, 6-Methoxy-N^4-piperidin-4-yl-N^2-{4-[(3-piperidin-1-yl-propy-lamino)-methyl]-benzyl}-quinazoline-2,4-diamine], in the data set with HIV-1 IIIB (setting [3]), the EC50 came to 0.0939 ± 0.0147 µM. Further, in the data set with TZM-bl cells, the “Selective Index CC50/EC50 TZM-bl” value amounted to 261 and the CC50 stood at 24.5 ± 2.5 µM. In addition, in the data set on CEM cells, the “Selective Index CC50/EC50 CEM” value came out at 196 and the CC50 was 18.4 ± 5.5 µM.
Take `COc1ccc2c(NC3CCNCC3)nc(NCc3ccc(CNCCCN4CCCCC4)cc3)nc2c1` [Compound 16, 7-Methoxy-N^4-piperidin-4-yl-N^2-{4-[(3-piperidin-1-yl-propy-lamino)-methyl]-benzyl}-quinazoline-2,4-diamine]: the EC50 in the data set on HIV-1 IIIB (setting [3]) amounted to 0.027 ± 0.0042 µM. Besides, in the data set on TZM-bl cells, the “Selective Index CC50/EC50 TZM-bl” value is 1193 and the CC50 stood at 32.2 ± 0.2 µM. In the data set with CEM cells, the “Selective Index CC50/EC50 CEM” value was found to be 511 and the CC50 is 13.8 ± 1.9 µM.
`COc1cc2nc(NCc3ccc(CNCCCN4CCCCC4)cc3)nc(NC3CCNCC3)c2cc1OC` [Compound 17, 6,7-Dimethoxy-N^4-piperidin-4-yl-N^2-{4-[(3-piperidin-1-yl-propylamino)-methyl]-benzyl}-quinazoline-2,4-diamine]: in “Cytotoxicity assay [1]”, the CC50 at 72 h worked out at 28.1 ± 1.5 µM and the selectivity ratio at 72 h turned out to be 1070. In “Cytotoxicity assay [2]”, the CC50 at 72 h worked out at 17.6 ± 3 µM and the selectivity ratio at 72 h stood at 672.
For `c1nc2c(NCc3ccc(CNCCCNC4CCCCC4)cc3)nc(N3CCNCC3)nc2[nH]1` [Compound 18, N-Cyclohexyl-N′-{4-[(2-piperazin-1-yl-9H-purin-6-ylamino)-methyl]-benzyl}-propane-1,3-diamine], the CC50 at 72 h in “Cytotoxicity assay [1]” and in the data set “Cytotoxicity assay [2]” was above 50 µM throughout. The selectivity ratio at 72 h in the data set “Cytotoxicity assay [1]” and in “Cytotoxicity assay [2]” was above 25000 throughout.
As for `Cn1cnc2c(NCc3ccc(CNCCCNC4CCCCC4)cc3)nc(N3CCNCC3)nc21` [Compound 19, N-Cyclohexyl-N′-{4-[(9-methyl-2-piperazin-1-yl-9H-purin-6-ylamino)-methyl]-benzyl}-propane-1,3-diamine], the “fold decrease in CXCR4 binding affinity compared to compound 18” value (“fold decrease in CXCR4 binding affinity” for short) at hCXCR4 is recorded as 4−5 fold. Moreover, in “Cytotoxicity assay [1]”, the midpoint of cytotoxicity, the CC50 at 72 h, lay at 18.6 ± 2 µM and the selectivity ratio at 72 h was found to be 5470. Besides, in “Cytotoxicity assay [2]”, half-maximal cytotoxicity (CC50 at 72 h) was put at 20.2 ± 1.5 µM and the selectivity ratio at 72 h was 5940.
As to `CN1CCN(c2nc(NCc3ccc(CNCCCNC4CCCCC4)cc3)c3ncn(C)c3n2)CC1` [Compound 20, N-Cyclohexyl-N′-(4-{[9-methyl-2-(4-methyl-piperazin-1-yl)-9H-purin-6-ylamino]-methyl}-benzyl)-propane-1,3-diamine], the “fold decrease in CXCR4 binding affinity” value at hCXCR4 was 4−5 fold. In the data set “Cytotoxicity assay [1]”, the CC50 at 72 h was determined as 11.2 ± 2.1 µM and the selectivity ratio at 72 h was 1720. In “Cytotoxicity assay [2]”, the CC50 at 72 h is 13.8 ± 1.8 µM and the selectivity ratio at 72 h amounted to 2120.
Taken in the same sequence, the figures for `c1nc2c(NCc3ccc(CNCCCNC4CCCCC4)cc3)nc(N3CCC(C4CCNCC4)CC3)nc2[nH]1` [Compound 21, N-{4-[(2-[4,4′]Bipiperidinyl-1-yl-9H-purin-6-ylamino)-methyl]-benzyl}-N′-cyclohexyl-propane-1,3-diamine] were 2−3 fold, above 50 µM, above 593, above 50 µM and above 593.
As for `c1nc2c(NCc3ccc(CNCCCNC4CCCCC4)cn3)nc(N3CCNCC3)nc2[nH]1` [Compound 22, N-Cyclohexyl-N′-{6-[(2-piperazin-1-yl-9H-purin-6-ylamino)-methyl]-pyridin-3-ylmethyl}-propane-1,3-diamine], the “fold decrease in CXCR4 binding affinity” value at hCXCR4 is listed as 2 fold. Besides, in the data set “Cytotoxicity assay [1]”, the CC50 at 72 h was above 50 µM and the selectivity ratio at 72 h was above 11900. Moreover, in the data set “Cytotoxicity assay [2]”, the CC50 at 72 h is above 50 µM and the selectivity ratio at 72 h was above 11900.
On to `c1nc2c(NCCc3ccc(CNCCCNC4CCCCC4)cc3)nc(N3CCNCC3)nc2[nH]1` [Compound 23, N-Cyclohexyl-N′-{4-[2-(2-piperazin-1-yl-9H-purin-6-ylami-no)-ethyl]-benzyl}-propane-1,3-diamine], for which, at hCXCR4, the “fold decrease in CXCR4 binding affinity” value is listed as “around 2 fold”. In the data set with HIV-1 IIIB (setting [3]), the EC50 turned out to be 0.0031 ± 0.0007 µM. In the data set on TZM-bl cells, the “Selective Index CC50/EC50 TZM-bl” value is on record as above 16129 and the CC50 is above 50 µM. Also, in the data set on CEM cells, the “Selective Index CC50/EC50 CEM” value amounted to 15065 and the CC50 worked out at 46.7 ± 3.2 µM.
As for `c1cc(CNCCCNC2CCCCC2)nc(CNc2nc(N3CCNCC3)nc3[nH]cnc23)c1` [Compound 26, N-Cyclohexyl-N′-{6-[(2-piperazin-1-yl-9H-purin-6-ylamino)-methyl]-pyridin-2-ylmethyl}-propane-1,3-diamine], the “fold decrease in CXCR4 binding compared to compound 25” value on hCXCR4 was 4−10 fold. Moreover, in “Cytotoxicity assay [1]”, the CC50 at 72 h was above 50 µM and the selectivity ratio at 72 h was above 20000. Also, in “Cytotoxicity assay [2]”, the CC50 at 72 h was above 50 µM and the selectivity ratio at 72 h is above 20000.
Consider `c1nc2c(NCc3cncc(CNCCCNC4CCCCC4)c3)nc(N3CCNCC3)nc2[nH]1` [Compound 27, N-Cyclohexyl-N′-{5-[(2-piperazin-1-yl-9H-purin-6-ylamino)-methyl]-pyridin-3-ylmethyl}-propane-1,3-diamine], for which, at hCXCR4, the “fold decrease in CXCR4 binding compared to compound 25” value is listed as 4−10 fold. In “Cytotoxicity assay [1]”, the CC50 at 72 h was above 50 µM and the selectivity ratio at 72 h is above 8770. For the same molecule, in “Cytotoxicity assay [2]”, the CC50 at 72 h is above 50 µM and the selectivity ratio at 72 h is above 8770.
Consider `CC1(C)CN2C(CSC(=NC3CCCCC3)NC3CCCCC3)=CSC2=N1` [IT1t, reference compound], for which the concentration giving a half-maximal response (EC50) with HIV-1 IIIB (setting [3]) is above 0.07 µM.
